The results in this text go back to PubChem BioAssay (NCI).

Values joined by “and” are separate entries in the source; they are usually repeats but may differ in a detail not shown here. Equal entries are not always repeated.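 Each compound was tested at five concentrations against cells in 96-well plates for 48 hours. GI50 is the concentration that inhibits growth by half. Definition used: TGI = concentration required for complete inhibition of growth.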

What all share (assay): inhibition of tumour cell growth, NCI panel, 48 h
Test [1] concerns 786-0 renal.
Test [2] concerns A549 NSCLC.
For test [3], the system named is EKVX NSCLC.
Test [4] relates to HT29 colon.
Test [5] relates to KM12 colon.
The test system of test [6] is RPMI-8226 leukemia.
The subject of test [7] is SF-268 CNS.
Test [8] relates to SK-MEL-5 melanoma.
Test [9] concerns DU-145 prostate.
Test [10] has as its system MCF7 breast.

Regarding `CC1OC(OC2C(CO)OC(O[C@H]3CC[C@@]4(C)C(=CC[C@H]5[C@@H]6C[C@@H]7O[C@]8(CC[C@@H](C)CN8)[C@@H](C)[C@@H]7[C@@]6(C)CC[C@@H]54)C3)C(O)C2O)C(O)C(O)C1O` (some centres undefined), the TGI in test [1], in test [2], in test [3], in test [4], in [5] and in [6] was over 100000 nM each time. Also, the TGI in test [7] and in [8] was over 100000 nM in each case.

On to `CCOC(=O)/C(C#N)=C1/C(O)=C(C(=O)OC)C(C(=O)OC)=C1C(=O)OC`, for which the TGI in test [1], in test [2], in [3], in test [4], in test [5] and in [6] was over 100000 nM in each case. Further, the TGI in [7] and in test [8] was over 100000 nM each time.

Take `Cc1cc2c(c3oc(C4(C)OC4C4OC4C)cc(=O)c13)C(=O)c1c(O)c(C3CC(C)(N(C)C)C(O)C(C)O3)cc(C3CC(N(C)C)C(O)C(C)O3)c1C2=O` (centres undefined): the GI50 in test [1] was 0.463 nM; in test [4] it was 2.5 nM; in test [5] it was 0.894 nM and 0.134 nM. For the same compound, the TGI in test [2] is 3.51 nM and 14.2 nM and 17.7 nM; in test [9] it was 0.138 nM and 0.556 nM; in [3], 0.78 nM and 0.929 nM; in test [4], 42.7 nM and 131 nM and 33.7 nM; in [5], 41.9 nM and 4.86 nM; in test [6], 14.2 nM and 55.7 nM and 7.25 nM. Also, the TGI in [8] was 1.4 nM and 0.447 nM.

Regarding `O=S(O)CCCSSc1ccccc1`, the TGI in test [1] was over 100000 nM; in test [2], over 100000 nM; in test [3], 88100 nM; in [4] it was over 100000 nM; in test [5], over 100000 nM; in test [7] it was over 100000 nM. Besides, in test [8], the TGI is over 100000 nM.

In the case of `CNC(=O)c1cccc2c(Nc3ccc(NS(C)(=O)=O)cc3OC)c3cccc(C)c3nc12`, the TGI in test [1] is 413 nM; in [2], 1610 nM; in test [3], 12100 nM; in test [4] it was 3690 nM; in [5] it was 2420 nM; in test [6], 1700 nM. The TGI in [7] is 8580 nM; in test [8] it was 1900 nM.

Turning to `CCOc1ccccc1NC(=O)CCc1n[nH]c(=S)o1`, the TGI in [1], in [2], in test [3], in test [4], in test [5] and in test [6] was over 100000 nM each time. Moreover, the TGI in [7] and in test [8] was over 100000 nM each time.

With `C=C(C)[C@@H]1CC[C@]2(CO)CC[C@]3(C)[C@H](CC[C@@H]4[C@@]5(C)CCC(NCCc6ccc(O)cc6)C(C)(C)[C@@H]5CC[C@]43C)[C@@H]12` (some centres undefined), the GI50 in test [1] was 1660 nM; in test [2] it was 1480 nM; in test [9], 1620 nM; in test [4] it was 1090 nM; in test [5] it was 1640 nM; in [10], 912 nM. For the same compound, the figures for the GI50 in [7] and in test [8] were 1860 nM and 1470 nM, respectively. Also, the TGI in test [1] worked out at 3260 nM; in [2], 3000 nM; in [9], 3030 nM; in test [4], 2490 nM; in test [5], 3290 nM; in test [10], 2570 nM. Moreover, the TGI in test [7] worked out at 3670 nM; in test [8], 2800 nM.

As for `O=C1CC(O)(c2ccccc2)C(c2ccccc2)=C1c1ccccc1` (centres undefined), the TGI was over 100000 nM in test [1]; over 100000 nM in test [2]; over 100000 nM in test [3]; over 100000 nM in [4]; over 100000 nM in [5]; 57700 nM in [6]. For the same compound, the values for the TGI in test [7] and in [8] were over 100000 nM and 86700 nM, respectively.

In the case of `CCOC(=O)c1ccc(NC(=O)SCCC(=O)O)cc1`, the TGI in test [1], in test [2], in test [3], in [4], in test [5] and in test [6] was over 100000 nM each time. This compound also returned a TGI in test [7] of 54000 nM.

As for `COC(=O)c1ccc(Cl)cc1NC(=O)C1CCCCC1`, the TGI in [1], in test [2], in [3], in test [4], in test [5] and in [6] was over 100000 nM each time. This compound also registered a TGI in test [7] of over 100000 nM.

With `CCC[CH2][Sn]1([CH2]CCC)[O]C(=O)c2ccc(C)cc2[O]1`, the GI50 in [1] is 1000 nM; in [2], 1570 nM; in test [3], 994 nM; in test [4] it was 1340 nM; in [5], 1060 nM; in test [6], 210 nM. Also, the GI50 in test [7] was 460 nM; in test [8], 1380 nM. Besides, the TGI in [1] is 2170 nM; in test [2] it was 2970 nM; in [3], 2230 nM; in test [4] it was 2970 nM; in test [5] it was 2360 nM; in test [6], 760 nM. Besides, the TGI in [7] came to 1460 nM; in [8] it was 2700 nM.

Regarding `CCc1ccc2c(c1)N(CCO)C1=C(C(=O)OC1)C2c1cccc(Cl)c1` (centres undefined), the GI50 in test [1] was 736 nM; in test [2], 784 nM; in [9], 1670 nM; in test [3], 5330 nM; in test [4], 345 nM; in test [5] it was 433 nM. The GI50 in test [6] is 3380 nM; in [7], 975 nM; in test [8] it was 357 nM. Moreover, the TGI in test [1] was 19000 nM; in [2], 18600 nM; in test [9] it was 13500 nM; in test [3] it was 31100 nM; in [4], 11100 nM; in test [5] it was 12600 nM. Besides, the TGI in [6] came to 52600 nM; in [7] it was 17200 nM; in test [8], 7560 nM.

As to `OC1C2CCC1C1C3C=CC(C3)C21` (centres undefined), the TGI in test [1], in test [2], in test [3], in test [4], in test [5] and in [6] was over 100000 nM throughout. Further, the TGI in [7] and in test [8] was over 100000 nM in each case.
